From US9155694B2, “Stabilized composition comprising at least one adrenergic compound” (ALK AG, priority 2009, dated 2015)

How the values were obtained:
[1] = 0.25% di-sodium edetate admixed; 60° C., up to 28 days; at the metabisulfite levels contemplated
Experimental: (§1) A 1.1 mg/ml solution of adrenaline (6.004×10^−3 M), in the form of the tartrate, pH 3.4 and containing 0.6% sodium chloride was used. A range of metabisulfite antioxidant concentrations, with and without admixture of 0.25% di-sodium edetate as chelating agent were tested. The metabisulfite/adrenaline molar ratios tested were 0.1, 0.2, 0.5, 1.0 and 1.5, which correspond to sulfite/adrenaline ratios of 0.2, 0.4, 1.0, 2.0 and 3.0, respectively. For the ease of reference to the general description and claims of this specification, the said values correspond to a molar ratio of adrenaline to sulfite of 5.0, 2.5, 1.0, 0.5 and 0.33, respectively.
(§2) The accelerated test temperature was 60° C., protected from light, and samples were pulled at 0, 7, 14, 21 and 28 days. At each pull point, the appearance of the test solution was assessed, the pH measured and the solution assayed for adrenaline content. The appearance of degradation products was noted as area %.
[adr]^+ relates to samples containing 0.025% di-sodium edetate, whereas [adr] relates to samples containing no chelating agent.

[2] = Further stability testing, thermal stress at 60° C. protected from light (Example 3); type: physicochemical
Experimental: (§3) The formulation solutions were prepared at a level of 1.0 mg/ml adrenaline (in the form of the tartrate), pH 3.4 containing 0.6% sodium chloride, with various molar ratios (0.25-0.59) of sodium metabisulfite added. The metabisulfite/adrenaline molar ratios tested were 0.25, 0.34, 0.42, 0.5 and 0.59, which correspond to sulfite/adrenaline ratios of 0.5, 0.68, 0.84, 1.0 and 1.18, respectively. For the ease of reference to the general description and claims of this specification, the said values correspond to a molar ratio of adrenaline to sulfite of 2.0, 1.47, 1.19, 1.0 and 0.85, respectively.
(§4) Each sample solution was split into two lots. For each sample solution, one lot was placed at the accelerated test temperature of 60° C., protected from light and the other lot placed in a photo-stability cabinet at 25° C. which provided 13400 lux visible light, 1.50 W·h/m^2 UV. Samples were pulled from both conditions at 0, 7, 14 and 28 days At each pull point, the appearance of the test solution was assessed, the pH measured and the adrenaline content measured together with impurities.

[3] = 1.0 mg/ml adrenaline (tartrate), pH 3.4, 0.6% sodium chloride; 25° C., 13400 lux visible light, 1.50 W·h/m^2 UV, up to 28 days
Experimental: as §3, §4

[4] = 60° C., weeks 0-4; FIGS. 8 and 9
Experimental: as §1
as §2, with “%. […]” for “%.”
Each sample solution was split into two lots. […] Samples were pulled from both conditions at 0, 7, 14 and 28 days At each pull point, the appearance of the test solution was assessed, the pH measured and the adrenaline content measured together with impurities.

[5] = auto-oxidation rate increases with pH

best metabisulfite:adrenaline ratio on the basis of total impurities from heat stress ([2]; 1.0 mg/ml adrenaline (tartrate), pH 3.4, 0.6% sodium chloride, 60° C., up to 28 days) | first choice of metabisulfite content with respect to adrenaline ([2]; considering both stresses (thermal 60° C. and photo-stress), loss of adrenaline, FIGS. 4 and 5) | best metabisulfite:adrenaline ratio on the basis of total impurities from photo-stress [3] | optimum sulfite:adrenaline ratio [4] | pH for maximum stability of epinephrine in solution [5] | SMILES | advantage of chelating agent for adrenaline solution stability [1]
– | – | – | – | – | O=C([O-])CN(CCN(CC(=O)[O-])CC(=O)O)CC(=O)O.[Na+].[Na+] [di-sodium edetate] | no advantage
0.42 | half molar | 0.5 | about 1.0 | about 3.4 | CNC[C@H](O)c1ccc(O)c(O)c1 [epinephrine, (R)-4-(1-hydroxy-2-(methylamino)ethyl)benzene-1,2-diol] | –
